Assay results published in PubChem BioAssay AID1963865 (Molecular Pharmacology Branch, DTP, NCI, 2024).

System: KRAS PDC multicell spheroid viability
Experiment: Anticancer human tumor 825966-067-R-J1-PDC patient-derived colon carcinoma cell line growth inhibition [KRAS2]
Settings: for IC50: curve of first compound; for viability, T/C: stronger effect = lower value
Summary of the method: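 KRAS-mutant tumor cells were grown as spheroids with HUVEC endothelial cells and human MSCs as stroma. Targeted agents were tested alone and with KRAS pathway inhibitors. Doses started at or near clinical Cmax, or 10 microM, descending half-log.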

[1] = second compound 0.1 µM, first compound 0.0316 µM
[2] = second compound 0.1 µM, first compound 0.1 µM
[3] = second compound 0.316 µM, first compound 0.0316 µM
[4] = second compound 0.316 µM, first compound 0.1 µM
[5] = second compound 1 µM, first compound 0.0316 µM
[6] = second compound 1 µM, first compound 0.1 µM
[7] = second compound 3.16 µM, first compound 0.0316 µM
[8] = second compound 3.16 µM, first compound 0.1 µM
[9] = second compound 10 µM, first compound 0.0316 µM
[10] = second compound 10 µM, first compound 0.1 µM
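Note: spheroids exposed to compounds for 7 days.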
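Throughout, for viability, T/C: 100% = DMSO vehicle control viability.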

Compound: Cn1ncnc1[C@H]1c2n[nH]c(=O)c3cc(F)cc(c23)N[C@@H]1c1ccc(F)cc1 + COc1cc2nc(C)nc(NC(C)c3cc(N)cc(C(F)(F)F)c3)c2cc1OC1CCOC1
- IC50 (second compound 0.1 µM): > 100 nM
- IC50 (second compound 0.316 µM): > 100 nM
- IC50 (second compound 1 µM): > 100 nM
- IC50 (second compound 3.16 µM): > 100 nM
- IC50 (second compound 10 µM): < 0.316 nM
- viability, T/C (second compound 0.1 µM, first compound 0.000316 µM): 92.2%
- viability, T/C (second compound 0.1 µM, first compound 0.001 µM): 89.3%
- viability, T/C (second compound 0.1 µM, first compound 0.00316 µM): 90.6%
- viability, T/C (second compound 0.1 µM, first compound 0.01 µM): 76.7%
- viability, T/C [1]: 83.9%
- viability, T/C [2]: 70.9%
- viability, T/C (second compound 0.316 µM, first compound 0.000316 µM): 86.3%
- viability, T/C (second compound 0.316 µM, first compound 0.001 µM): 94.4%
- viability, T/C (second compound 0.316 µM, first compound 0.00316 µM): 82.4%
- viability, T/C (second compound 0.316 µM, first compound 0.01 µM): 101%
- viability, T/C [3]: 65.3%
- viability, T/C [4]: 64.4%
- viability, T/C (second compound 1 µM, first compound 0.000316 µM): 86.3%
- viability, T/C (second compound 1 µM, first compound 0.001 µM): 99.4%
- viability, T/C (second compound 1 µM, first compound 0.00316 µM): 107%
- viability, T/C (second compound 1 µM, first compound 0.01 µM): 79.2%
- viability, T/C [5]: 84.2%
- viability, T/C [6]: 92.1%
- viability, T/C (second compound 3.16 µM, first compound 0.000316 µM): 116%
- viability, T/C (second compound 3.16 µM, first compound 0.001 µM): 103%
- viability, T/C (second compound 3.16 µM, first compound 0.00316 µM): 114%
- viability, T/C (second compound 3.16 µM, first compound 0.01 µM): 94.7%
- viability, T/C [7]: 105%
- viability, T/C [8]: 89.3%
- viability, T/C (second compound 10 µM, first compound 0.000316 µM): 11.3%
- viability, T/C (second compound 10 µM, first compound 0.001 µM): 10.4%
- viability, T/C (second compound 10 µM, first compound 0.00316 µM): 17.1%
- viability, T/C (second compound 10 µM, first compound 0.01 µM): 21.1%
- viability, T/C [9]: 11.8%
- viability, T/C [10]: 7.86%

Compound: Cn1nccc1Nc1nccc(-c2cc3c(s2)C(C)(C)N(CCN2CCOCC2)C3=O)n1 + CNCc1ccccc1-c1csc(C(C)Nc2nc(C)nc3cc(OC)c(OC)cc23)c1
- IC50 (second compound 0.1 µM): > 10000 nM
- IC50 (second compound 0.316 µM): > 10000 nM
- IC50 (second compound 1 µM): 5040 nM
- IC50 (second compound 3.16 µM): 53.1 nM
- IC50 (second compound 10 µM): < 31.6 nM
- viability, T/C [1]: 108%
- viability, T/C [2]: 96.9%
- viability, T/C (second compound 0.1 µM, first compound 0.316 µM): 123%
- viability, T/C (second compound 0.1 µM, first compound 1 µM): 125%
- viability, T/C (second compound 0.1 µM, first compound 3.16 µM): 96.1%
- viability, T/C (second compound 0.1 µM, first compound 10 µM): 82.3%
- viability, T/C [3]: 94.8%
- viability, T/C [4]: 103%
- viability, T/C (second compound 0.316 µM, first compound 0.316 µM): 137%
- viability, T/C (second compound 0.316 µM, first compound 1 µM): 75.6%
- viability, T/C (second compound 0.316 µM, first compound 3.16 µM): 82.2%
- viability, T/C (second compound 0.316 µM, first compound 10 µM): 75.8%
- viability, T/C [5]: 118%
- viability, T/C [6]: 137%
- viability, T/C (second compound 1 µM, first compound 0.316 µM): 134%
- viability, T/C (second compound 1 µM, first compound 1 µM): 98.1%
- viability, T/C (second compound 1 µM, first compound 3.16 µM): 66.8%
- viability, T/C (second compound 1 µM, first compound 10 µM): 29%
- viability, T/C [7]: 78%
- viability, T/C [8]: 13.4%
- viability, T/C (second compound 3.16 µM, first compound 0.316 µM): 12.4%
- viability, T/C (second compound 3.16 µM, first compound 1 µM): 0.56%
- viability, T/C (second compound 3.16 µM, first compound 3.16 µM): 0.23%
- viability, T/C (second compound 3.16 µM, first compound 10 µM): 0.47%
- viability, T/C [9]: 0.39%
- viability, T/C [10]: 0.21%
- viability, T/C (second compound 10 µM, first compound 0.316 µM): 0.16%
- viability, T/C (second compound 10 µM, first compound 1 µM): 0.16%
- viability, T/C (second compound 10 µM, first compound 3.16 µM): 2.28%
- viability, T/C (second compound 10 µM, first compound 10 µM): 0.24%
